The values that follow are results of earlier work, collected in patent US5981558A, “DC107 derivatives” (Kyowa Hakko Kogyo Co., Ltd., priority 1996, dated 1999).

One series concerns various bacteria. Particulars: Japanese Published Unexamined Patent Application No. 112988/89; cited from earlier work.
Another series concerns tumor. Particulars: Japanese Published Unexamined Patent Application No. 112988/89; cited from earlier work.

The structures appear in SMILES notation.

Turning to `CC1=CC(O)C(=O)C=CC=Cc2csc(n2)C(C)NC(=O)CC2(CC1)[S+]([O-])SC(=O)C2(C)O` (centres unmarked) [DC107], the antimicrobial activity result in the series on various bacteria is recorded as “antimicrobial activity against various bacteria”. For the same compound, the antitumor activity result in the series with tumor is recorded as “antitumor activity”.
